Test results published in PMC6522510 (Nature Communications, 2019).

What was measured:
Experiment in all cases: cells
Set-up in all cases: species or system AML cell lines (8); Secondary HTS, 10-point dose-response in triplicate, Cell Titer Glo viability, four-parameter fit EC50
MOLM-13 = details: Homo sapiens, MOLM-13, 72 h, read-out: MOLM-13
MV4-11 = details: Homo sapiens, MV4-11, 72 h, read-out: MV4-11
CHRF288-11 = details: 72 h, read-out: CHRF288-11
CMK = details: Homo sapiens, CMK, 72 h, read-out: CMK
CMS = details: 72 h, read-out: CMS
M07e = details: M-07e, 72 h, read-out: M07e
ML-2 = details: Homo sapiens, ML-2, 72 h, read-out: ML-2
U937 = details: Homo sapiens, U-937, 72 h, read-out: U937

| EC50 (MOLM-13) | EC50 (MV4-11) | EC50 (U937) | Structure (SMILES) | EC50 (CHRF288-11) | EC50 (CMK) | EC50 (CMS) | EC50 (M07e) | EC50 (ML-2) |
| --- | --- | --- | --- | --- | --- | --- | --- | --- |
| > 10 µM | > 10 µM | 1.5 µM | O=C(c1ccc(Nc2nccc(-c3cc4ccccc4s3)n2)cc1)N1CCC(N2CCCC2)CC1 [SJ000806482, IKK 16] | 1 µM | 2.8 µM | 0.45 µM | 4.4 µM | 0.42 µM |
| 0.11 µM | 0.071 µM | > 10 µM | CCc1c(O)cc(O)c(C(=O)c2ccc(OCCN3CCOCC3)c(OC)c2)c1CC(=O)N(CCOC)CCOC [SJ000821566, KW-2478] | 6.3 µM | 4.4 µM | > 10 µM | > 10 µM | 0.16 µM |
| 0.019 µM | 0.023 µM | > 10 µM | CC(C)NCCCn1c(Sc2cc3c(cc2I)OCO3)nc2c(N)ncnc21 [SJ000821568, PU-H71] | 0.17 µM | 0.024 µM | 0.18 µM | > 10 µM | 0.082 µM |
| > 10 µM | > 10 µM | > 10 µM | Cc1cc(I)ccc1Nc1c(C(=O)NOCC2CC2)cc(F)c(F)c1F [SJ000821584, PD 198306] | > 10 µM | > 10 µM | > 10 µM | > 10 µM | > 10 µM |
| > 10 µM | > 10 µM | 6.2 µM | CNC(=O)c1c(F)cccc1Nc1nc(Nc2cc3c(ccn3C(=O)CN(C)C)cc2OC)nc2[nH]ccc12 [SJ000821585, GSK1838705A] | > 10 µM | 5.8 µM | > 10 µM | > 10 µM | > 10 µM |
| 9.3 µM | 3.2 µM | > 10 µM | CCOc1cc(N2CCC(O)CC2)ccc1Nc1ncc2c(n1)N(C)c1ccccc1C(=O)N2C [SJ000821586, XMD 8-92] | > 10 µM | 2 µM | > 10 µM | > 10 µM | > 10 µM |
| 6.4 µM | 6.4 µM | 6.5 µM | COC(=O)[C@H](CC(C)C)NC(=O)c1ccc(NC[C@@H](N)CS)cc1-c1cccc2ccccc12 [SJ000821624, GGTI 298] | > 10 µM | > 10 µM | > 10 µM | > 10 µM | > 10 µM |
| 0.021 µM | 0.001 µM | 8.1 µM | CCCCNc1ncc2c(-c3ccc(CN4CCN(C)CC4)cc3)cn(C3CCC(O)CC3)c2n1 (stereo not shown) [SJ000821849, UNC2025A] | 6.4 µM | 4.6 µM | > 10 µM | 8.2 µM | 5 µM |
| > 10 µM | > 10 µM | > 10 µM | COc1ccc2nc3n[nH]c(C)c3c(NCCOCCO)c2c1 [SJ000832935, SCH 51344] | > 10 µM | > 10 µM | > 10 µM | > 10 µM | > 10 µM |
| > 10 µM | > 10 µM | 10 µM | O=C(CCCCCCNC(=O)c1cnc(N(c2ccccc2)c2ccccc2)nc1)NO [SJ000833835, ROCILINOSTAT] | > 10 µM | 9.1 µM | > 10 µM | 2.7 µM | > 10 µM |
| > 10 µM | > 10 µM | > 10 µM | O=C(NCC1(c2nc(-c3ccccc3)cs2)CCOCC1)c1cccc(-c2noc(C(F)(F)F)n2)c1 [SJ000833838, TMP269] | > 10 µM | > 10 µM | > 10 µM | 0.19 µM | > 10 µM |
| > 10 µM | > 10 µM | > 10 µM | Cc1ccc(C(=O)c2cc(/C=C/C(=O)NO)n(C)c2)cc1 [SJ000833840, MC 1293] | > 10 µM | 8.7 µM | > 10 µM | 0.45 µM | > 10 µM |
| > 10 µM | > 10 µM | 4.7 µM | C[C@@H]1COCCN1c1cc(C2(S(C)(=O)=O)CC2)nc(-c2cccc3[nH]ccc23)n1 [SJ000833844, AZ-20] | 2.5 µM | > 10 µM | 0.6 µM | 0.2 µM | 0.031 µM |
| 0.0024 µM | > 10 µM | > 10 µM | O=C(CCN1CCN(C(=O)OCc2cc(Cl)cc(Cl)c2)CC1)c1ccc2[nH]c(=O)oc2c1 [SJ000833851, PF-8380] | > 10 µM | > 10 µM | > 10 µM | > 10 µM | > 10 µM |
| 0.0068 µM | > 10 µM | > 10 µM | Cc1noc(-c2ccc(-c3ccc(CC(=O)O)cc3)cc2)c1NC(=O)O[C@H](C)c1ccccc1 [SJ000833854, AM-095] | > 10 µM | > 10 µM | > 10 µM | > 10 µM | > 10 µM |
| 0.018 µM | > 10 µM | > 10 µM | Cc1noc(-c2ccc(-c3ccc(CC(=O)O)cc3)cc2)c1NC(=O)O[C@H](C)c1ccccc1Cl [SJ000833864, AM-966] | > 10 µM | > 10 µM | > 10 µM | > 10 µM | > 10 µM |
| > 10 µM | > 10 µM | 3.9 µM | CN(c1ncccc1CNc1nc(Nc2ccc3c(c2)CC(=O)N3)ncc1C(F)(F)F)S(C)(=O)=O [SJ000833883, PF-00562271] | > 10 µM | 2.6 µM | > 10 µM | 6.2 µM | 0.5 µM |
| > 10 µM | > 10 µM | > 10 µM | N#Cc1ccc(COC[C@H]2O[C@@H](n3c(NCc4ccc(Cl)c(Cl)c4)nc4c(N)ncnc43)[C@H](O)[C@@H]2O)cc1 [SJ000833885, VER-155008] | > 10 µM | > 10 µM | 5.9 µM | > 10 µM | > 10 µM |
| > 10 µM | > 10 µM | > 10 µM | N[C@@H]1CCCN(c2c(/C=C3\SC(=O)NC3=O)cccc2-c2ccccc2)C1 [SJ000833889, AZD1208] | > 10 µM | > 10 µM | > 10 µM | > 10 µM | > 10 µM |
| > 10 µM | > 10 µM | > 10 µM | O=c1cc(N2CCOCC2)oc2c(-c3cccc4c3sc3ccccc34)cccc12 [SJ000834137, NU 7441] | > 10 µM | > 10 µM | > 10 µM | 0.3 µM | > 10 µM |

| Structure (SMILES) | EC50 (MOLM-13) | EC50 (MV4-11) | EC50 (U937) | EC50 (CHRF288-11) | EC50 (CMK) | EC50 (CMS) | EC50 (M07e) | EC50 (ML-2) |
| --- | --- | --- | --- | --- | --- | --- | --- | --- |
| Cc1c(N)nc([C@H](CC(N)=O)NC[C@H](N)C(N)=O)nc1C(=O)N[C@H](C(=O)N[C@H](C)[C@@H](O)[C@H](C)C(=O)N[C@H](C(=O)NCCc1nc(-c2nc(C(=O)NCCC[S+](C)C)cs2)cs1)[C@@H](C)O)[C@@H](OC1OC(CO)C(O)C(O)C1OC1OC(CO)C(O)C(OC(N)=O)C1O)c1cnc[nH]1 (stereo partly shown) [SJ000804032, BLEOMYCIN] | 6.9 µM | > 10 µM | > 10 µM | > 10 µM | > 10 µM | > 10 µM | > 10 µM | > 10 µM |
| CNC(=O)c1ccccc1Nc1nc(Nc2ccc(N3CCOCC3)cc2OC)ncc1Cl [SJ000822451, NVP-TAE226] | 0.7 µM | > 10 µM | 4.5 µM | 9.8 µM | 0.2 µM | > 10 µM | 7.6 µM | 2.5 µM |
| CC(N[C@H]1C[C@@H]1c1ccccc1)c1ccc2c(c1)OCCO2 (stereo partly shown) [SJ000832930, LSD1-C76] | > 10 µM | 0.001 µM | > 10 µM | > 10 µM | > 10 µM | > 10 µM | > 10 µM | > 10 µM |
| COc1ccc(Cn2ccc3ccc(C(=O)NO)cc32)cc1 [SJ000833836, PCI 34051] | > 10 µM | > 10 µM | > 10 µM | > 10 µM | > 10 µM | 6.8 µM | > 10 µM | > 10 µM |
| CC(C)(C#N)c1ccc(N2C(=O)OCc3cnc4ccc(-c5cnc6ccccc6c5)cc4c32)cc1 [SJ000833848, ETP-46464] | > 10 µM | > 10 µM | > 10 µM | 8.3 µM | 0.73 µM | 5.2 µM | > 10 µM | 3.6 µM |
| C=CC(=O)Nc1cccc(Nc2nc(Nc3ccc(OCCOC)cc3)ncc2F)c1 [SJ000833882, CC-292 (AVL-292)] | > 10 µM | > 10 µM | 4.8 µM | > 10 µM | 4 µM | > 10 µM | 9.5 µM | > 10 µM |
